Common to all, as to assay: NCI tumour cell line growth inhibition, 48 h
For assay [1], the system named is HL-60(TB) leukemia.
Assay [2] concerns KM12 colon.
Assay [3] concerns SR leukemia.
The test system of assay [4] is MALME-3M melanoma.
Assay [5] concerns HT29 colon.
The subject of assay [6] is CAKI-1 renal.
The test system of assay [7] is A549 NSCLC.
Assay [8] has as its system LOX IMVI melanoma.
For assay [9], the system named is COLO 205 colon.
For assay [10], the system named is OVCAR-5 ovarian.
For assay [11], the system named is ACHN renal.
Assay [12] deals with SNB-19 CNS.
The subject of assay [13] is EKVX NSCLC.
The test system of assay [14] is SK-OV-3 ovarian.
The subject of assay [15] is SF-539 CNS.

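The compound was tested at five concentrations on cells cultured in 96-well plates, with a 48-hour exposure period. At the TGI there is no net growth.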

For the molecule `COC(=O)C(=O)C(C(=O)OC)C(=O)C(=O)Nc1cc(Cl)c(Cl)cc1Cl` (centres undefined), the TGI in [1] was greater than 100 µM; in assay [2], greater than 100 µM; in assay [3], 56.7 µM; in [4], greater than 100 µM; in assay [5], greater than 100 µM; in [6], greater than 100 µM. In addition, the TGI in assay [7], in [8], in assay [9], in [10], in assay [11] and in assay [12] was greater than 100 µM each time. Also, the TGI in [13], in assay [14] and in assay [15] was greater than 100 µM throughout.
Turning to `Nc1ncnc2c1ncn2C1CC(OC2CCCCO2)C(CO)O1` (centres undefined), the TGI in assay [1], in [2], in assay [3], in [4], in [5] and in assay [7] was greater than 100 µM each time. In addition, the TGI in assay [8], in [9], in assay [10], in [11], in [12] and in [13] was greater than 100 µM each time. In addition, the TGI in assay [14] and in [15] was greater than 100 µM throughout.
Turning to `Cc1cc(=O)[nH]c(NNC(C#N)c2ccco2)n1` (centres undefined), the TGI in assay [1], in [2], in [3], in assay [4], in [5] and in [6] was greater than 100 µM in each case. Further, the TGI in assay [7], in assay [8], in [9], in assay [10], in assay [11] and in assay [14] was greater than 100 µM throughout. Further, in assay [15], the TGI was greater than 100 µM.
Consider `O=C1NC2C(CCO)CC=C[C@H]2c2cc3c(cc21)OCO3` (some centres undefined), for which the TGI in assay [1], in assay [2], in assay [3], in assay [4], in [5] and in assay [7] was greater than 100 µM in each case. Besides, the TGI in [8], in assay [9], in assay [11], in [12], in assay [13] and in [14] was greater than 100 µM each time. The molecule also yielded a TGI in assay [15] greater than 100 µM.
In the case of `C/C(=N/NC(N)=S)C(CN(C)C)C(C1=C(O)c2ccccc2OC1)c1ccccc1` (centres undefined), the TGI in [1], in assay [2], in assay [3], in assay [4], in [5] and in assay [6] was greater than 100 µM each time. In addition, the TGI in [7], in [8], in [9], in [10], in [11] and in assay [12] was greater than 100 µM throughout. Further, the TGI in assay [13], in assay [14] and in assay [15] was greater than 100 µM each time.
As for `COc1ccc(C2S/C(=C\c3ccccc3)C(=O)N2NC(=O)Cc2ccccc2)cc1` (centres undefined), the TGI in assay [1], in [2], in assay [3], in [4], in assay [5] and in assay [6] was greater than 100 µM each time. Moreover, the TGI in assay [7], in assay [8], in [9], in assay [10], in [11] and in [14] was greater than 100 µM in each case. Further, in assay [15], the TGI is greater than 100 µM.
On to `Fc1ccc2c3c([nH]c2c1)CCNC3`, for which the TGI in assay [1], in [2], in assay [3], in [4], in assay [5] and in [7] was greater than 100 µM each time. Further, the TGI in assay [8], in assay [9], in [10], in assay [11], in assay [12] and in assay [13] was greater than 100 µM in each case. Further, the TGI in assay [14] and in assay [15] was greater than 100 µM throughout.
`CN1N=C2c3ccccc3CC[C@H]2C1c1cccc(O)c1` (some centres undefined): the TGI is greater than 100 µM in [1]; greater than 100 µM in [2]; greater than 100 µM in assay [3]; 5.01 µM in assay [4]; greater than 100 µM in assay [5]; greater than 100 µM in [7]. The TGI in assay [8], in [9], in assay [10], in [11], in assay [12] and in assay [13] was greater than 100 µM each time. Moreover, the TGI in assay [14] and in assay [15] was greater than 100 µM each time.
On to `COC(=O)N/N=C(/Cc1occc(=O)c1O)C(=O)Nc1ccc([N+](=O)[O-])cc1[N+](=O)[O-]`, for which the TGI in assay [1], in [2], in [3], in assay [4], in assay [5] and in [6] was greater than 100 µM throughout. Also, the TGI in [7], in [8], in [9], in [10], in assay [11] and in assay [12] was greater than 100 µM in each case. The TGI in assay [13], in [14] and in assay [15] was greater than 100 µM each time.
For the molecule `CC/C(SC)=[N+](\C)[O-]`, the TGI was 25.2 µM in assay [1]; greater than 100 µM in assay [2]; 50 µM in assay [3]; greater than 100 µM in [4]; greater than 100 µM in [5]; greater than 100 µM in assay [6]. Besides, the TGI in [7] is greater than 100 µM; in [8], greater than 55.8 µM; in assay [9], greater than 66.9 µM; in assay [10], greater than 100 µM; in assay [11] it was greater than 100 µM; in [12] it was greater than 100 µM. The TGI in [13], in [14] and in [15] was greater than 100 µM each time.
Take `O=C(N/N=C(\c1nc2ccc(Cl)cc2[nH]c1=O)C(O)c1ccccc1Cl)c1ccncc1` (centres undefined): the TGI in assay [1], in [2], in assay [4], in [5], in assay [6] and in assay [7] was greater than 100 µM in each case. The TGI in assay [8], in assay [9], in assay [10], in assay [11], in assay [12] and in [13] was greater than 100 µM throughout. The TGI in assay [14] and in [15] was greater than 100 µM throughout.
`C#Cc1cc(CN(CC(=O)OC(C)(C)C)CC(=O)OC(C)(C)C)nc(CN(CC(=O)OC(C)(C)C)CC(=O)OC(C)(C)C)c1`: the TGI in assay [1] is 9.72 µM; in assay [2] it was 23 µM; in [4], 20.9 µM; in assay [5] it was greater than 100 µM; in assay [6], 33.1 µM; in assay [7], 89.4 µM. Further, the TGI is 6.03 µM in [8]; 24.9 µM in assay [9]; greater than 100 µM in [10]; 77 µM in assay [11]; 15.1 µM in assay [12]; 49.3 µM in assay [13]. For the same molecule, the TGI in assay [14] was determined as 51 µM; in assay [15], 32.9 µM.
In the case of `CCN(CC)CCCCC1CCN(CC(=O)N2c3cc(Cl)ccc3NC(=O)CC2C)CC1` (centres undefined), the TGI in [1], in assay [3], in assay [4], in [5], in assay [6] and in [7] was greater than 100 µM in each case. The TGI in assay [8], in [9], in assay [10], in [11], in [12] and in assay [14] was greater than 100 µM throughout.
Regarding `CC(C)C1COC(c2ccc3ccccc3c2-c2c(O[Si](C)(C)C(C)(C)C)ccc3ccccc23)=N1` (centres undefined), the TGI in assay [1] was 33.1 µM; in assay [2], 35.7 µM; in assay [4] it was 32.9 µM; in assay [5] it was 29 µM; in assay [6] it was 45.2 µM; in [7] it was 31.7 µM. The TGI in [8] turned out to be 45.5 µM; in [9] it was 33.6 µM; in [10] it was 32.6 µM; in [11] it was 33.2 µM; in [12] it was 29.2 µM; in assay [13], 35.3 µM. Also, the TGI in assay [14] came out at 34.5 µM; in [15] it was 32.4 µM.
On to `CCOC(=O)Nn1c(C)cc(C(=O)OC)c1C`, for which the TGI in assay [1], in assay [2], in [4], in assay [5], in assay [6] and in assay [7] was greater than 100 µM throughout. The TGI in [8], in [9], in assay [10], in [11], in assay [12] and in assay [13] was greater than 100 µM throughout. For the same molecule, the TGI in assay [14] and in [15] was greater than 100 µM each time.

Source of the values: PubChem BioAssay (NCI).
